Our source for the IC50 values is patent US7713994B2 (Wyeth LLC, priority 2005, dated 2010).

One experiment addresses T1, cyclin B/CDK1 enzyme (Homo sapiens, UniProt P06493).
T1 construct: purchased New England BioLabs; host or cells: Sf9 insect cells, recombinant baculovirus
The experiment in a line: CDK1 ELISA kinase assay (phospho-Rb ser 795 detection). The conditions noted are these: In Vitro Enzyme Assays, read-out: CDK1 IC50. It counts as biochemical. The procedure, abridged: (§1)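 ELISA format: plate-bound GST-Rb, 200 μM ATP, Sf9 cyclin/CDK enzyme, 1 h at 30° C; then anti-pRb Ser795 primary overnight at 4° C, HRP secondary, TMB. IC50 after no-substrate background subtraction.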
In general terms: In an ELISA, binding on a coated surface is turned into a signal by an enzyme label.

The target of the next experiment is T2, cyclin D1/cdk 4 enzyme (Homo sapiens, UniProt P11802).
T2 construct: made in house; host or cells: Sf9 insect cells, recombinant baculovirus
Put plainly: CDK4 ELISA kinase assay (phospho-Rb ser 795 detection). It counts as biochemical. The conditions noted are these: In Vitro Enzyme Assays, 200 μM ATP, read-out: CDK4 IC50. An outline of the steps: as §1

The subject of a further experiment is BT474. Put plainly: Cytotoxicity assay (SRB), BT474. Format: cell-based. The note with it: Homo sapiens, BT-474, 144 h, BT474 cells, SRB, 6 days; read-out: In Vitro Cellular Activity IC50 BT474. An outline of the steps: (§2)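 Cells seeded overnight at 37 °C, 7% CO2 (BT474 12000, HCT-116 4000, LoVo and MCF-7 6000 cells/well) in RPMI 1640 with 5% FBS, then exposed to compound dilutions for 3 days (BT474 6 days). Survival versus untreated controls by TCA fixation and SRB staining, absorbance 540 nm.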

The target in a further experiment is T3, cyclin E/CDK2 enzyme (Homo sapiens, UniProt P24941).
T3 construct: made in house; host or cells: Sf9 insect cells, recombinant baculovirus
The experiment in a line: CDK2 ELISA kinase assay (phospho-Rb ser 795 detection). Format: biochemical. The note with it: In Vitro Enzyme Assays, read-out: CDK2 IC50. The procedure, abridged: as §1

A further experiment relates to HCT-116. The experiment in a line: Cytotoxicity assay (SRB), HCT-116. Format: cell-based. The note with it: Homo sapiens, HCT-116, 72 h, HCT116 cells, SRB, three days; read-out: In Vitro Cellular Activity IC50 HCT116. The procedure, abridged:
as §2

For another experiment, the system named is MCF-7. The experiment in a line: Cytotoxicity assay (SRB), MCF-7. It counts as cell-based. The note with it: Homo sapiens, MCF7, 72 h, MCF-7 cells, SRB, three days; read-out: In Vitro Cellular Activity IC50 MCF-7. The procedure, abridged: as §2
A further experiment deals with LoVo. The experiment in a line: Cytotoxicity assay (SRB), LoVo. Format: cell-based. The note with it: Homo sapiens, LoVo, 72 h, LoVo cells, SRB, three days; read-out: In Vitro Cellular Activity IC50 LOVO. The procedure, abridged:
as §2

SMILES strings stand for the structures.

What is called IC50 is the concentration that gives 50% inhibition.

T2 sequence (P11802 whole entry, species assumed): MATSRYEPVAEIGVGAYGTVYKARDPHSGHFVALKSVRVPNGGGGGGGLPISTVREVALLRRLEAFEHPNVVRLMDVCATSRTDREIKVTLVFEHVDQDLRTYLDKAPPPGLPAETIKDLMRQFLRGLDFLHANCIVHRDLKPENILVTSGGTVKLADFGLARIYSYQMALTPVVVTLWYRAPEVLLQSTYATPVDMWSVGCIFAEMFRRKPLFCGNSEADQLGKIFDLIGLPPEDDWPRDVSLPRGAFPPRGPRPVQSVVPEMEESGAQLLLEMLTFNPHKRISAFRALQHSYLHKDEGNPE
T2 sequence (P24385 whole entry partner, species assumed): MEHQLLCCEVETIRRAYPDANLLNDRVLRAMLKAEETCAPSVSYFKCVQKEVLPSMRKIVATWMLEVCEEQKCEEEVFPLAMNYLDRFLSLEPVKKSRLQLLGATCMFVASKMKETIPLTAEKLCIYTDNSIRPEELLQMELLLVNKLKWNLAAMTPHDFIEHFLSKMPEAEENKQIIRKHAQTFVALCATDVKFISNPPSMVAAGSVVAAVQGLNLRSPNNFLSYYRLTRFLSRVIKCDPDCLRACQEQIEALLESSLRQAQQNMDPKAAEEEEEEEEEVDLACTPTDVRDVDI
T1 sequence (P06493 whole entry): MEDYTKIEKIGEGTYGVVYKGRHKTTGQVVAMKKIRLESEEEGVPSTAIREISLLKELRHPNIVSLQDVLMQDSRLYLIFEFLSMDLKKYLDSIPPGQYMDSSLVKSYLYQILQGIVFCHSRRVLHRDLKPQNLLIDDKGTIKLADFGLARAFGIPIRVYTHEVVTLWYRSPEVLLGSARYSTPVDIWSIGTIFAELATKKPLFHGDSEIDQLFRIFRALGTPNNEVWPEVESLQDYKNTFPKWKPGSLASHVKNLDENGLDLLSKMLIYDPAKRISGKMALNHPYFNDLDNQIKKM
T1 sequence (P14635 whole entry partner): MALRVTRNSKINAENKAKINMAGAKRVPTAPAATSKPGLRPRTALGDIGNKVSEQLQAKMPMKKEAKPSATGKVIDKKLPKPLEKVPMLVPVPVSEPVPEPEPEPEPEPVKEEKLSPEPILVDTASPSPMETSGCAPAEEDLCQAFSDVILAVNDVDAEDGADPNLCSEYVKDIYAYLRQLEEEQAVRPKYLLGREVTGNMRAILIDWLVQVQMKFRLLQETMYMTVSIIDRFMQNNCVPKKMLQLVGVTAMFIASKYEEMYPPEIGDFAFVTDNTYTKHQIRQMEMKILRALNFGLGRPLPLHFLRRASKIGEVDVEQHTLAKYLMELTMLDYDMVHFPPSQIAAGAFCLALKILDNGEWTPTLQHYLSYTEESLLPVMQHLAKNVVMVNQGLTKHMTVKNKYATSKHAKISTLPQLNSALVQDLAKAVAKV

For the compound `CC#CC(=O)Nc1ccc(CN/C=C2\C(=O)NC(=O)c3ccc(I)cc32)cc1O` [Example 339, N-[2-Hydroxy-4-({[(Z)-(6-iodo-1,3-dioxo-2,3-dihydroisoquinolin-4(1H)-ylidene)methyl]amino}methyl)phenyl]but-2-ynamide], the IC50 at cyclin B/CDK1 enzyme was 820 nM; on cyclin D1/cdk 4 enzyme it was 70 nM; with BT474, 5100 nM; on cyclin E/CDK2 enzyme it was 370 nM; with HCT-116, 10000 nM; in the experiment with MCF-7, 16000 nM. Moreover, in the experiment on LoVo, the IC50 stood at 12000 nM.
For the compound `C#CC(=O)Nc1ccc(CN/C=C2\C(=O)NC(=O)c3ccc(I)cc32)cc1O` [Example 340, N-[2-Hydroxy-4-({[(Z)-(6-iodo-1,3-dioxo-2,3-dihydroisoquinolin-4(1H)-ylidene)methyl]amino}methyl)phenyl]prop-2-ynamide], the IC50 on cyclin B/CDK1 enzyme is 6100 nM; at cyclin D1/cdk 4 enzyme, 70 nM; in the experiment on BT474, 1400 nM; on cyclin E/CDK2 enzyme it was 1600 nM; in the experiment on HCT-116 it was 1200 nM; in the experiment on MCF-7, 1400 nM. Besides, the IC50 in the experiment on LoVo worked out at 1400 nM.
Take `CCC(=O)Nc1ccc(CN/C=C2\C(=O)NC(=O)c3ccc(I)cc32)cc1O` [Example 341, N-[2-Hydroxy-4-({[(Z)-(6-iodo-1,3-dioxo-2,3-dihydroisoquinolin-4(1H)-ylidene)methyl]amino}methyl)phenyl]propanamide]: the IC50 came to 3100 nM at cyclin B/CDK1 enzyme; 20 nM on cyclin D1/cdk 4 enzyme; 930 nM in the experiment on BT474; 590 nM on cyclin E/CDK2 enzyme; 1000 nM in the experiment with HCT-116; 2500 nM with MCF-7. For the same compound, the IC50 in the experiment on LoVo was found to be 950 nM.
On to `C=CC(=O)Nc1ccc(CN/C=C2\C(=O)NC(=O)c3ccc(I)cc32)cc1O` [Example 342, N-[2-Hydroxy-4-({[(Z)-(6-iodo-1,3-dioxo-2,3-dihydroisoquinolin-4(1H)-ylidene)methyl]amino}methyl)phenyl]acrylamide], for which the IC50 on cyclin B/CDK1 enzyme was found to be 2900 nM; at cyclin D1/cdk 4 enzyme, 10 nM; in the experiment with BT474, 70 nM; at cyclin E/CDK2 enzyme, 860 nM; in the experiment on HCT-116, 120 nM; in the experiment on MCF-7, 150 nM. Besides, the IC50 with LoVo was determined as 90 nM.
As for `C/C=C/C(=O)Nc1ccc(CN/C=C2\C(=O)NC(=O)c3ccc(I)cc32)cc1OC(=O)/C=C/C` [Example 343, 2-[(2E)-But-2-enoylamino]-5-({[(Z)-(6-iodo-1,3-dioxo-2,3-dihydroisoquinolin-4(1H)-ylidene)methyl]amino}methyl)phenyl (2E)-but-2-enoate], the IC50 at cyclin B/CDK1 enzyme was above 50000 nM; on cyclin D1/cdk 4 enzyme, 7800 nM; in the experiment with BT474, 7700 nM; on cyclin E/CDK2 enzyme, 22600 nM; with HCT-116 it was 12000 nM; in the experiment on MCF-7 it was 14000 nM. Further, the IC50 with LoVo was found to be 9800 nM.
`CCCOc1ccc(CN/C=C2\C(=O)NC(=O)c3ccc(Br)cc32)cc1C(N)=O` [Example 353, 5-({[(Z)-(6-Bromo-1,3-dioxo-2,3-dihydroisoquinolin-4(1H)-ylidene)methyl]amino}methyl)-2-propoxybenzamide]: the IC50 was above 50000 nM on cyclin B/CDK1 enzyme; above 50000 nM on cyclin D1/cdk 4 enzyme; 670 nM in the experiment on BT474; 31700 nM on cyclin E/CDK2 enzyme; 6100 nM in the experiment on HCT-116; above 50000 nM in the experiment on MCF-7. In addition, the IC50 in the experiment on LoVo was found to be 1000 nM.
For `CC(c1ccc(N/C=C2\C(=O)NC(=O)c3ccc(I)cc32)cc1)N1CCCC1` (stereo not shown) [Example 354, 6-Iodo-4-{[4-(1-pyrrolidin-1-yl-ethyl)-phenylamino]-methylene}-4H-isoquinoline-1,3-dione], the IC50 on cyclin B/CDK1 enzyme is above 50000 nM; at cyclin D1/cdk 4 enzyme, 230 nM; in the experiment on BT474 it was 8600 nM; at cyclin E/CDK2 enzyme, 5000 nM; in the experiment on HCT-116, 4800 nM; with MCF-7, 940 nM. Also, the IC50 in the experiment on LoVo is 3500 nM.
Regarding `CN1CCN(C2CCC(NC=C3C(=O)NC(=O)c4ccc(I)cc43)CC2)CC1` (stereo not shown) [Example 360, 6-Iodo-4-{[4-(4-methyl-piperazin-1-yl)-cyclohexylamino]-methylene}-4H-isoquinoline-1,3-dione], the IC50 at cyclin B/CDK1 enzyme is above 50000 nM; on cyclin D1/cdk 4 enzyme, 460 nM; in the experiment with BT474, 16000 nM; on cyclin E/CDK2 enzyme, above 50000 nM; with HCT-116, 9600 nM; in the experiment with MCF-7, 8900 nM. In addition, the IC50 with LoVo stood at 9600 nM.
As for `CN1CCCC1c1ccc(NC=C2C(=O)NC(=O)c3ccc(I)cc32)cc1` (stereo not shown) [Example 361, 6-Iodo-4-{[4-(1-methyl-pyrrolidin-2-yl)-phenylamino]-methylene}-4H-isoquinoline-1,3-dione], the half-inhibitory concentration (IC50) on cyclin B/CDK1 enzyme came to 45500 nM; on cyclin D1/cdk 4 enzyme, 220 nM; with BT474, 860 nM; at cyclin E/CDK2 enzyme, 17900 nM; in the experiment on HCT-116 it was 3800 nM; with MCF-7, 2600 nM. Moreover, in the experiment with LoVo, the IC50 turned out to be 5900 nM.
On to `COc1cnc(CNC=C2C(=O)NC(=O)c3ccc(I)cc32)cc1O` [Example 362, 6-Iodo-4-{[(4-hydroxy-5-methoxy-pyridin-2-ylmethyl)-amino]-methylene}-4H-isoquinoline-1,3-dione], for which the IC50 on cyclin B/CDK1 enzyme was found to be 14700 nM; on cyclin D1/cdk 4 enzyme, 10 nM; in the experiment on BT474, 200 nM; on cyclin E/CDK2 enzyme it was 500 nM; with HCT-116, 1300 nM; in the experiment on MCF-7, 1000 nM. In the experiment with LoVo, the IC50 came out at 700 nM.
On to `CCCOc1cnc(CNC=C2C(=O)NC(=O)c3ccc(-n4cccc4)cc32)cc1O` [Example 363, 4-{[(4-Hydroxy-5-propoxy-pyridin-2-ylmethyl)-amino]-methylene}-6-pyrrol-1-yl-4H-isoquinoline-1,3-dione], for which the IC50 was above 50000 nM on cyclin B/CDK1 enzyme; 6 nM on cyclin D1/cdk 4 enzyme; 1500 nM in the experiment on BT474; 14700 nM at cyclin E/CDK2 enzyme; 3200 nM with HCT-116; 2400 nM with MCF-7. In addition, in the experiment with LoVo, the IC50 is 2300 nM.
For the compound `CCCOc1cnc(CNC=C2C(=O)NC(=O)c3ccc(Br)cc32)cc1O` [Example 365, 4-{[(4-Hydroxy-5-propoxy-pyridin-2-ylmethyl)-amino]-methylene}-6-bromo-4H-isoquinoline-1,3-dione], the 50% inhibitory concentration (IC50) was above 50000 nM at cyclin B/CDK1 enzyme; 70 nM at cyclin D1/cdk 4 enzyme; 760 nM with BT474; 1900 nM on cyclin E/CDK2 enzyme; 1300 nM with HCT-116; 1200 nM with MCF-7. In the experiment on LoVo, the IC50 was determined as 1000 nM.
As to `COC(=O)[C@H]1CCCN1Cc1ccc(NC=C2C(=O)NC(=O)c3ccc(I)cc32)cc1` [Example 367, D-1-{4-[(6-Iodo-1,3-dioxo-2,3-dihydro-1H-isoquinolin-4-ylidenemethyl)-amino]-benzyl}-pyrrolidine-2-carboxylic acid methyl ester], the IC50 was above 50000 nM at cyclin B/CDK1 enzyme; 12600 nM on cyclin D1/cdk 4 enzyme; 15000 nM in the experiment on BT474; 43400 nM on cyclin E/CDK2 enzyme; 13000 nM in the experiment with HCT-116; 13000 nM with MCF-7. The IC50 in the experiment with LoVo came to 26000 nM.
As for `O=C1NC(=O)c2ccc(I)cc2/C1=C/Nc1ccc(CN2CCC[C@@H]2CO)cc1` [Example 368, D-4-{[4-(2-Hydroxymethyl-pyrrolidin-1-ylmethyl)-phenylamino]-methylene}-6-iodo-4H-isoquinoline-1,3-dione], the half-maximal inhibitory concentration (IC50) on cyclin B/CDK1 enzyme was above 50000 nM; on cyclin D1/cdk 4 enzyme, 510 nM; with BT474, 500 nM; at cyclin E/CDK2 enzyme, 30300 nM; in the experiment on HCT-116 it was 3200 nM; in the experiment with MCF-7 it was 1800 nM. Also, the IC50 with LoVo is 3700 nM.
Regarding `CC(C)(O)[C@H]1CCCN1Cc1ccc(N/C=C2\C(=O)NC(=O)c3ccc(I)cc32)cc1` [Example 369, D-4-({4-[2-(1-Hydroxy-1-methyl-ethyl)-pyrrolidin-1-ylmethyl]-phenylamino}-methylene)-6-iodo-4H-isoquinoline-1,3-dione], the IC50 on cyclin B/CDK1 enzyme was above 50000 nM; at cyclin D1/cdk 4 enzyme, 460 nM; in the experiment with BT474 it was 1200 nM; at cyclin E/CDK2 enzyme, above 50000 nM; in the experiment with HCT-116 it was 4300 nM; with MCF-7, 1700 nM. Moreover, in the experiment with LoVo, the IC50 stood at 5000 nM.
In the case of `COC(C)C1CCCN1Cc1ccc(N/C=C2\C(=O)NC(=O)c3ccc(I)cc32)cc1` (stereo not shown) [Example 375, 6-Iodo-4-({4-[2-(1-methoxy-ethyl)-pyrrolidin-1-ylmethyl]-phenylamino}-methylene)-4H-isoquinoline-1,3-dione], the IC50 on cyclin B/CDK1 enzyme was above 50000 nM; on cyclin D1/cdk 4 enzyme, 390 nM; in the experiment with BT474 it was 520 nM; at cyclin E/CDK2 enzyme, above 50000 nM; in the experiment with HCT-116, 3900 nM; in the experiment on MCF-7, 710 nM. In addition, the IC50 with LoVo came out at 3200 nM.
